# Data taken from US11420976B2 (priority 2020, dated 2022).
# Tested on: Human RSV-A (“Long” strain)
# Test: RSV-A assay (CPE, ATPlite readout in Hep-2 cells)
# Format: cell-based
# Conditions: human respiratory syncytial virus, 120 h; Hep-2 cells, MOI 0.1, 5-day incubation, ATPlite; read-out: Human RSV-A (“Long” strain) EC50
# From the text: Hep-2 cells, (originally derived from tumors grown in irradiated-cortisonised weanling rats that had been injected with epidermoid carcinoma tissue from a person's larynx, but later found to be indistinguishable from HeLa cells by PCR DNA analysis), were used for the culturing of genotype A, “Long” strain RSV. Flasks were inoculated with RSV and viral stocks were collected once cytopathic effect (CPE) was greater than 90%. Viral stocks in 25% sucrose media were snap frozen using liquid nitrogen to increase viral stability. Viral stock titers were quantified by tissue culture infectious dose 50% (TCID50) using 8,000 cells per well and 3-fold viral dilutions across a 96-well plate, cultured for 4 days. Viral stock titers were also quantified by a plaque forming unit assay, as described elsewhere.
# Following extensive parameter testing, the final assay is run as follows: Hep-2 cells are seeded into the inner 60 wells of a 96-well plate at 8,000 cells per well in a volume of 50 μL using Growth Media (DMEM without phenol red, 1% L-Glut, 1% Penn/Strep, 1% nonessential amino acids, 10% heat-inactivated FBS). 2-fold serial dilutions of control and test compounds are added to the wells in duplicate in a total volume of 25 μL. Viral stock is then added to the wells at a multiplicity of infection (MOI) of 0.1 in a volume of 25 μL, bringing the total volume of each well to 100 μL. The MOI is calculated using the PFU/mL, or TCID50 if unavailable. Each 96-well plate has a control column of 6 wells with cells and virus but no compound (negative control, max CPE), a column with cells but no compound or virus (positive control, minimum CPE), and a column with no cells or virus or compound (background plate/reagent control). The control wells with cells but no virus are given an additional […], of growth media containing an equal quantity of sucrose as those wells receiving the viral stock in order to keep consistent in media and volume conditions. The outer wells of the plate are filled with 125 μL of moat media (DMEM, 1% Penn/Strep) to act as a thermal and evaporative moat around the test wells. Following a 5-day incubation period, the plates are read using ATPlite (50 uL added per well), which quantifies the amount of ATP (a measure of cell health) present in each well. Assay plates are read using the Envision luminometer. […] EC50 ranges are as follows: A<0.2 μM; B≥0.2 μM.
row,EC50 [nM],Compound
1,< 200,"C[C@](O)(CNC(=O)c1cc(OC2CC2)c2ncccc2c1)c1cc2c(c(-c3ccc(F)cc3)n1)OC[C@@]2(N)C(F)(F)F [Example 16, N—((S)-2-((R)-3-amino-7-(4-fluorophenyl)-3-(trifluoromethyl)-2,3-dihydrofuro[2,3-c]pyridin-5-yl)-2-hydroxypropyl)-8-cyclopropoxyquinoline-6-carboxamide]"
2,< 200,"COc1cc(C(=O)NC[C@](C)(O)c2cc3c(c(-c4ccc(F)cc4)n2)OC[C@@]3(N)C(F)(F)F)cc2cccnc12 [Example 17, N—((S)-2-((R)-3-amino-7-(4-fluorophenyl)-3-(trifluoromethyl)-2,3-dihydrofuro[2,3-c]pyridin-5-yl)-2-hydroxypropyl)-8-methoxyquinoline-6-carboxamide]"
3,< 200,"C[C@](O)(CNC(=O)c1ccc(OC2CC2)c(-c2cccnc2)c1)c1cc2c(c(-c3ccc(F)cc3)n1)OC[C@@]2(N)C(F)(F)F [Example 18, N—((S)-2-((R)-3-amino-7-(4-fluorophenyl)-3-(trifluoromethyl)-2,3-dihydrofuro[2,3-c]pyridin-5-yl)-2-hydroxypropyl)-4-cyclopropoxy-3-(pyridin-3-yl)benzamide]"
4,> 200,COc1cc(C(=O)NC[C@](O)(c2cc3c(c(-c4ccc(F)cc4)n2)OC[C@]3(N)C(F)(F)F)C(F)(F)F)ccc1OCCO [Example 33]
5,> 200,COc1cccc2cc(C(=O)NC[C@](O)(c3cc4c(c(-c5ccc(F)cc5)n3)OC[C@@]4(N)C(F)(F)F)C(F)(F)F)cnc12 [Example 41]
6,> 200,COc1cc(C(=O)NC[C@](O)(c2cc3c(c(-c4ccc(F)cc4)n2)OC[C@@]3(N)C(F)(F)F)C(F)(F)F)ccc1C(F)(F)F [Example 42]
7,> 200,COc1ccc2nc(C(=O)NC[C@](O)(c3cc4c(c(-c5ccc(F)cc5)n3)OC[C@@]4(N)C(F)(F)F)C(F)(F)F)cc(OC)c2c1 [Example 43]
8,> 200,CC(C)(C)S(=O)(=O)N[C@@]1(C(F)(F)F)COc2c1cc([C@@](C)(O)CNC(=O)c1cc(OC3CC3)c3ncccc3c1)nc2-c1ccc(F)cc1 [Example 45]
9,< 200,"Nc1nc2ccc(C(=O)NC[C@](O)(c3cc4c(c(-c5ccc(F)cc5)n3)OC[C@@]4(N)C(F)(F)F)C3CC3)cc2s1 [Example 52, 2-amino-N—((S)-2-((R)-3-amino-7-(4-fluorophenyl)-3-(trifluoromethyl)-2,3-dihydrofuro[2,3-c]pyridin-5-yl)-2-cyclopropyl-2-hydroxyethyl)benzo[d]thiazole-6-carboxamide]"
10,< 200,"COc1cc(C(=O)NC[C@](O)(c2cc3c(c(-c4ccc(F)cc4)n2)OC[C@@]3(N)C(F)(F)F)C2CC2)cc2sc(N)nc12 [Example 53, 2-amino-N—((S)-2-((R)-3-amino-7-(4-fluorophenyl)-3-(trifluoromethyl)-2,3-dihydrofuro[2,3-c]pyridin-5-yl)-2-cyclopropyl-2-hydroxyethyl)-4-methoxybenzo[d]thiazole-6-carboxamide]"

# Further lines, the molecule ahead of its results:
row,Compound,EC50 [nM]
1,"COc1cc(C(=O)NC[C@@](O)(c2cc3c(c(-c4ccc(F)cc4)n2)OC[C@@]3(N)C(F)(F)F)C(F)(F)F)ccc1OC1CC1 [Example 2, N—((R)-2-((R)-3-amino-7-(4-fluorophenyl)-3-(trifluoromethyl)-2,3-dihydrofuro[2,3-c]pyridin-5-yl)-3,3,3-trifluoro-2-hydroxypropyl)-4-cyclopropoxy-3-methoxybenzamide]",> 200
2,"COc1cc(C(=O)NC[C@](O)(c2cc3c(c(-c4ccc(F)cc4)n2)OC[C@@]3(N)C(F)(F)F)C(C)(C)C)ccc1OC1CC1 [Example 12, N—((S)-2-((R)-3-amino-7-(4-fluorophenyl)-3-(trifluoromethyl)-2,3-dihydrofuro[2,3-c]pyridin-5-yl)-2-hydroxy-3,3-dimethylbutyl)-4-cyclopropoxy-3-methoxybenzamide]",> 200
3,"COc1cc(C(=O)NC[C@](O)(c2cc3c(c(-c4ccc(F)cc4)n2)OC[C@@]3(NC(=O)CO)C(F)(F)F)C(F)(F)F)ccc1OC1CC1 [Example 14, 4-cyclopropoxy-3-methoxy-N—((S)-3,3,3-trifluoro-2-((R)-7-(4-fluorophenyl)-3-(2-hydroxyacetamido)-3-(trifluoromethyl)-2,3-dihydrofuro[2,3-c]pyridin-5-yl)-2-hydroxypropyl)benzamide]",< 200
4,COc1cc(C(=O)NC[C@](O)(c2cc3c(c(-c4ccc(F)cc4)n2)OC[C@@]3(N)C(F)(F)F)C(F)(F)F)ccc1OCCO [Example 31],> 200
5,COc1cc(C(=O)NC[C@@](O)(c2cc3c(c(-c4ccc(F)cc4)n2)OC[C@]3(N)C(F)(F)F)C(F)(F)F)ccc1OCCO [Example 32],> 200
6,COc1ccc(C(=O)NC[C@](O)(c2cc3c(c(-c4ccc(F)cc4)n2)OC[C@@]3(N)C(F)(F)F)C(F)(F)F)cc1OC [Example 34],> 200
7,COc1cnc(C(=O)NC[C@](O)(c2cc3c(c(-c4ccc(F)cc4)n2)OC[C@@]3(N)C(F)(F)F)C(F)(F)F)cc1OC [Example 35],> 200
8,COc1cc(C(=O)NC[C@](O)(c2cc3c(c(-c4ccc(F)cc4)n2)OC[C@@]3(N)C(F)(F)F)C(F)(F)F)ccc1OCC(C)C [Example 36],> 200
9,COCCOc1ccc(C(=O)NC[C@](O)(c2cc3c(c(-c4ccc(F)cc4)n2)OC[C@@]3(N)C(F)(F)F)C(F)(F)F)cc1OC [Example 37],> 200
10,COc1cc(F)c(C(=O)NC[C@](O)(c2cc3c(c(-c4ccc(F)cc4)n2)OC[C@@]3(N)C(F)(F)F)C(F)(F)F)cc1OC [Example 38],> 200
11,COc1cc(C(=O)NC[C@](O)(c2cc3c(c(-c4ccc(F)cc4)n2)OC[C@@]3(N)C(F)(F)F)C(F)(F)F)cc(F)c1OC1CC1 [Example 39],> 200
12,COc1cc(C(=O)NC[C@](O)(c2cc3c(c(-c4ccc(F)cc4)n2)OC[C@@]3(N)C(F)(F)F)C(F)(F)F)nc2ccccc12 [Example 40],> 200
13,COC(=O)N[C@@]1(C(F)(F)F)COc2c1cc([C@@](O)(CNC(=O)c1ccc(OC3CC3)c(OC)c1)C(F)(F)F)nc2-c1ccc(F)cc1 [Example 44],> 200
14,COc1cc(C(=O)NC[C@](C)(O)c2cc3c(c(-c4ccc(F)cc4)n2)OC[C@@]3(NS(=O)(=O)C(C)(C)C)C(F)(F)F)cc2cccnc12 [Example 46],> 200
15,"COC[C@](O)(CNC(=O)c1cc(OC2CC2)c2ncccc2c1)c1cc2c(c(-c3ccc(F)cc3)n1)OC[C@@]2(N)C(F)(F)F [Example 50, N—((S)-2-((R)-3-amino-7-(4-fluorophenyl)-3-(trifluoromethyl)-2,3-dihydrofuro[2,3-c]pyridin-5-yl)-2-hydroxy-3-methoxypropyl)-8-cyclopropoxyquinoline-6-carboxamide]",< 200
16,"Nc1nc2c(F)cc(C(=O)NC[C@](O)(c3cc4c(c(-c5ccc(F)cc5)n3)OC[C@@]4(N)C(F)(F)F)C3CC3)cc2s1 [Example 54, 2-amino-N—((S)-2-((R)-3-amino-7-(4-fluorophenyl)-3-(trifluoromethyl)-2,3-dihydrofuro[2,3-c]pyridin-5-yl)-2-cyclopropyl-2-hydroxyethyl)-4-fluorobenzo[d]thiazole-6-carboxamide]",< 200
17,"COc1cc(C(=O)NC[C@](O)(c2cc3c(c(-c4ccc(F)cc4)n2)OC[C@@]3(N)C(F)(F)F)C2CC2)cc2cn(C)nc12 [Example 55, N—((S)-2-((R)-3-amino-7-(4-fluorophenyl)-3-(trifluoromethyl)-2,3-dihydrofuro[2,3-c]pyridin-5-yl)-2-cyclopropyl-2-hydroxyethyl)-7-methoxy-2-methyl-2H-indazole-5-carboxamide]",< 200
18,C[C@](O)(CNC(=O)c1cc(OC2CC2)c2ncccc2c1)c1cc2c(c(-c3ccc(F)c(Cl)c3)n1)OC[C@@]2(N)C(F)(F)F [Example 56],> 200
19,COc1cc(C(=O)NC[C@](O)(c2cc3c(c(-c4ccc(F)cc4)n2)OC[C@@]3(N)C(F)(F)F)C2COC2)ccc1OC1CC1 [Example 57],> 200

# Same assay, conditions: human respiratory syncytial virus, HEp-2, 120 h, read-out: Human RSV-A (“Long” strain) EC50
row,Compound,EC50 [nM]
1,"COC(=O)N[C@@]1(C(F)(F)F)COc2c1cc([C@@](C)(O)CNC(=O)c1ccc(OC3CC3)c(OC)c1)nc2-c1ccc(F)cc1 [Example 15, methyl ((R)-5-((S)-1-(4-cyclopropoxy-3-methoxybenzamido)-2-hydroxypropan-2-yl)-7-(4-fluorophenyl)-3-(trifluoromethyl)-2,3-dihydrofuro[2,3-c]pyridin-3-yl)carbamate]",< 200
2,"COc1cc(C(=O)NC[C@](C)(O)c2cc3c(c(-c4ccc(F)cc4)n2)OC[C@@]3(NC(=N)NC#N)C(F)(F)F)ccc1OC1CC1 [Example 21, N—((S)-2-((R)-3-(3-cyanoguanidino)-7-(4-fluorophenyl)-3-(trifluoromethyl)-2,3-dihydrofuro[2,3-c]pyridin-5-yl)-2-hydroxypropyl)-4-cyclopropoxy-3-methoxybenzamide]",< 200
